Measurements published in article PMC5650142, “GPR40 partial agonists and AgoPAMs: Differentiating effects on glucose and hormonal secretions in the rodent” (PLoS ONE, 2017).
“And” between values parts separate entries of the source, which are not always exact repeats. Equal values may be shown once.

Tests used:
[1] = tested on: wild type C57BL/6 and GLP-1R-/- mice; assay: Mouse glucose tolerance test (IPGTT, wild type and GLP-1R-/- mice); type: in vivo; parameters: Blood Glucose Net AUC: unit not given here; settings: for Blood Glucose / Plasma Insulin: 30 mpk, 30 mg/kg; for Blood Glucose Net AUC: @ 30, individual animals
Method: Wild type C57BL/6 mice and GLP-1R^-/- mice were fed a high fat diet (D12492i, Research Diets) for 6 weeks prior to GTT. On the day of study, mice were fasted at 1 h post lights on, and body weights were measured. […] Mice were then dosed PO at a volume of 10 ml/kg with vehicle (0.5% methylcellulose), MK-2305 (a GPR40 partial agonist described in Hauge et al) at 10 mg/kg, or AP1 at 30 mg/kg. Dosages of MK-2305 and AP1 were administered at maximal efficacious doses as determined by acute dose titrations with efficacy determined via reduction in glucose during an IPGTT (data not shown). […] Blood glucose was measured again (time = 0) just prior to an intraperitoneal (IP) dextrose challenge of 1 g/kg at 10 ml/kg dose volume (Dextrose, Hospira Inc., Lake Forrest IL). A subset of vehicle treated mice was injected with 0.9% NaCl saline to serve as negative control. Blood glucose was then measured at 10, 20, 40, 60, and 120 min after challenge. To capture insulin secretion during the IPGTT, blood via tail vein was collected at t = - 60, 0, 10, 20, 40, 60 min post challenge.
Net AUC was calculated by subtracting the average AUC of the saline group from each groups’ total AUC.
(§1) Blood for insulin, glucagon, GLP-1, GIP, and PYY measurements was collected into K2EDTA Microtainer tubes (BD, Franklin Lakes, NJ) pre-treated with DPP4 inhibitor (Millipore, Billerica, MA) and cOmplete™ Protease Inhibitor Cocktail Tablets (Roche Diagnostics, Indianapolis, IN). Tubes were centrifuged for 10 minutes at 5000 RPM, and plasma was aliquotted for analysis. Plasma insulin levels were measured via EIA (Mesoscale Discovery ELISA Kit, Gaithersburg MD). Rat plasma total GLP-1 was measured using Total GLP-1 (ver.2) Assay Kit (Cat#: K150JVC). The measurement of active GLP-1 was carried out in a similar manner as that described for total GLP-1 assay with the exception that MSD Active GLP-1 (ver. 2) assay kit (Cat# K150JWC) was used. Rat plasma glucagon was measured using an in-house glucagon assay developed as a MSD format sandwich immunoassay (Merck & Co., Inc., MRL, Kenilworth, NJ USA). The antibody specificity was cross validated via mass- spec using procedures described in Lee et al. Briefly, MSD Streptavidin Gold plates were coated with 2 μg/ml biotin mouse monoclonal antibody generated to glucagon. Test samples were added to the plates and a separate Sulfo- tagged monoclonal antibody was used to detect the captured glucagon protein (2 μg/ml). The ELISA was carried out in the standard reagents in the MSD format. The plate was read on the SECTOR Imager 6000 Reader. Metabolic hormones GIP (Gastric Inhibitory Polypeptide) and PYY (Peptide YY) were measured in rat plasma using the Rat Metabolic Magnetic Bead Panel (EMD Millipore, Billerica, MA). The assay was performed according to manufacturer protocol.

[2] = tested on: wild type and GPR40-/- mice; assay: Mouse incretin measurements (plasma glucagon, wild type and GPR40-/- mice); type: in vivo; settings: for Plasma Glucagon: @ 30, individual animals (Fig 6A)
Method: Wild type and GPR40-/- mice were weighed the day prior to dosing. Food was removed from mice at lights on. 2 hours later mice were dosed via oral gavage (PO) at a volume of 10 ml/kg with vehicle (0.5% methylcellulose), AP1 at 30 mg/kg, or AP3 at 30 mg/kg. At 60 minutes post dose, mice were euthanized via CO2 asphyxiation. Blood was collected via cardiac puncture.
as §1

[3] = GLP-1R-/- and wild type mice, MK-2305 10 mg/kg, AP1 30 mg/kg PO
[4] = KO mice, Time 0, individual animals
[5] = KO mice, Time 10, individual animals
[6] = KO mice, Time 20, individual animals
[7] = KO mice, Time 40, individual animals
[8] = KO mice, Time 60, individual animals
[9] = KO mice, Time -60, individual animals
[10] = WT mice, Time 0, individual animals
[11] = WT mice, Time 10, individual animals
[12] = WT mice, Time 20, individual animals
[13] = WT mice, Time 60, individual animals
[14] = WT mice, Time -60, individual animals

## COc1ccc(F)c(-c2ccc([C@@H]3CCc4ccc([C@H](C5CC5)[C@H](C)C(=O)O)cc4O3)cc2)c1 [AP1]
[1]; [3]
  blood glucose excursion during IPGTT: reduced
  insulin following dextrose challenge (IPGTT): increased insulin following the dextrose challenge in both knockout and wild type mice
[1]; [4]
  Blood Glucose: 84 mg/dL and 106 mg/dL and 108 mg/dL and 102 mg/dL and 90 mg/dL and 97 mg/dL and 104 mg/dL
  Plasma Insulin: 1.042 ng/ml and 1.305 ng/ml and 1.695* ng/ml and 1.425 ng/ml and 1.092 ng/ml and 1.099 ng/ml and 1.131 ng/ml
[1]; [5]
  Blood Glucose: 140 mg/dl and 143 mg/dl (2×) and 241 mg/dl and 103 mg/dl and 112 mg/dl and 152 mg/dl
  Plasma Insulin: 1.818 ng/ml and 1.304 ng/ml and 8.134* ng/ml and 2.799 ng/ml and 1.233 ng/ml and 2.777 ng/ml and 1.836 ng/ml
[1]; [6]
  Blood Glucose: 79 mg/dL and 107 mg/dL and 145 mg/dL and 126 mg/dL and 76 mg/dL and 80 mg/dL and 104 mg/dL
  Plasma Insulin: 1.06 ng/ml and 0.804 ng/ml and 3.066* ng/ml and 1.963 ng/ml and 0.693 ng/ml and 1.694 ng/ml and 1.832 ng/ml
[1]; [7]
  Blood Glucose: 58 mg/dL and 108 mg/dL
  Plasma Insulin: 0.728 ng/ml and 0.449 ng/ml and 1.028* ng/ml and 0.546 ng/ml and 0.513 ng/ml and 0.552 ng/ml and 0.628 ng/ml
[1]; [8]
  Blood Glucose: 75 mg/dL and 116 mg/dL and 106 mg/dL and 69 mg/dL and 92 mg/dL and 78 mg/dL and 110 mg/dL
  Plasma Insulin: 0.445 ng/ml and 0.264 ng/ml and 0.373* ng/ml and 0.39 ng/ml and 0.327 ng/ml and 0.218 ng/ml and 0.377 ng/ml
[1]; KO mice, Time 120, individual animals
  Blood Glucose: 66 mg/dL and 102 mg/dL and 86 mg/dL and 103 mg/dL and 77 mg/dL and 71 mg/dL and 121 mg/dL
[1]; [9]
  Blood Glucose: 190 mg/dl and 206 mg/dl (2×) and 172 mg/dl and 181 mg/dl and 204 mg/dl and 230 mg/dl
  Plasma Insulin: 0.47 ng/ml and 0.396 ng/ml and 1.185* ng/ml and 0.53 ng/ml and 0.25 ng/ml and 0.347 ng/ml and 0.673 ng/ml
[1]; KO mice, Time -90, individual animals
  Blood Glucose: 196 mg/dL and 173 mg/dL and 164 mg/dL and 153 mg/dL and 203 mg/dL and 170 mg/dL and 187 mg/dL
[1]; KO mice
  Blood Glucose Net AUC: -16949 and -21574 and -17294 and -16394 and -19399 and -20469 and -21384
[1]; [10]
  Blood Glucose: 89 mg/dl and 78 mg/dl and 112 mg/dl and 100 mg/dl and 85 mg/dl (2×) and 93 mg/dl
  Plasma Insulin: 3.656 ng/ml and 8.79 ng/ml and 40.989* ng/ml and 1.246 ng/ml and 3.561 ng/ml and 1.813 ng/ml and 4.832 ng/ml
[1]; [11]
  Blood Glucose: 166 mg/dL and 152 mg/dL and 163 mg/dL and 220 mg/dL and 195 mg/dL and 184 mg/dL and 168 mg/dL
  Plasma Insulin: 14.251 ng/ml and 18.912 ng/ml and 38.822* ng/ml and 7.869 ng/ml and 14.176 ng/ml and 5.575 ng/ml and 12.785 ng/ml
[1]; [12]
  Blood Glucose: 91 mg/dL and 101 mg/dL and 128 mg/dL and 137 mg/dL and 134 mg/dL and 97 mg/dL and 94 mg/dL
  Plasma Insulin: 4.859 ng/ml and 8.657 ng/ml and 36.643* ng/ml and 4.529 ng/ml and 12.495 ng/ml and 4.309 ng/ml and 7.23 ng/ml
[1]; WT mice, Time 40, individual animals
  Plasma Insulin: 1.713 ng/ml and 4.072 ng/ml and 12.598* ng/ml and 2.583 ng/ml and 4.314 ng/ml and 1.11 ng/ml and 3.089 ng/ml
[1]; [13]
  Blood Glucose: 92 mg/dL and 102 mg/dL and 81 mg/dL and 87 mg/dL and 72 mg/dL and 96 mg/dL and 104 mg/dL
  Plasma Insulin: 1.617 ng/ml and 3.058 ng/ml and 8.765* ng/ml and 1.2 ng/ml and 2.106 ng/ml and 0.602 ng/ml and 3.057 ng/ml
[1]; WT mice, Time 120, individual animals
  Blood Glucose: 76 mg/dl and 96 mg/dl (2×) and 126 mg/dl and 113 mg/dl and 92 mg/dl and 93 mg/dl
[1]; [14]
  Blood Glucose: 175 mg/dL and 176 mg/dL and 194 mg/dL and 178 mg/dL and 190 mg/dL and 196 mg/dL and 226 mg/dL
  Plasma Insulin: 0.973 ng/ml (2×) and 2.15 ng/ml and 4.52* ng/ml and 0.764 ng/ml and 1.183 ng/ml and 1.616 ng/ml
[1]; WT mice, Time -90, individual animals
  Blood Glucose: 168 mg/dL and 146 mg/dL and 183 mg/dL and 161 mg/dL and 151 mg/dL and 156 mg/dL and 176 mg/dL
[1]; WT mice
  Blood Glucose Net AUC: -13948 and -15303 and -14628 and -14263 and -12238 and -14078 and -14253
[2]; KO mice
  Plasma Glucagon: 13.34 pg/mL and 13.81 pg/mL and 52.65 pg/mL and 26.95 pg/mL and 36.14 pg/mL and 35.65 pg/mL
[2]; WT mice, 30 mg/kg PO, 1h post dose
  circulating glucagon: increase
[2]; WT mice
  Plasma Glucagon: 101.77 pg/mL and 108.33 pg/mL and 114.33 pg/mL and 421.21 pg/mL and 183.75 pg/mL and 252.53 pg/mL and 120.41 pg/mL
